tested on: Aspergillus parasiticus

Compound	Aflatoxin B1 [ppb]
N#Cc1c[nH]cc1-c1cccc2c1OC(F)(F)O2 [Fludioxonil]	17390 ppb
OC(Cc1ccccc1Cl)(Cn1nc[nH]c1=S)C1(Cl)CC1 (centres unmarked) [Prothioconazole]	37785 ppb
CC(C)(C)C(O)(CCc1ccc(Cl)cc1)Cn1cncn1 (centres unmarked) [Tebuconazole]	4545 ppb
CON=C(C(=O)OC)c1ccccc1CON=C(C)c1cccc(C(F)(F)F)c1 [Trifloxystrobin]	9775 ppb

tested on: Aspergillus flavus

Compound	Aflatoxin B1 [ppb]
N#Cc1c[nH]cc1-c1cccc2c1OC(F)(F)O2 [Fludioxonil]	1230 ppb
OC(Cc1ccccc1Cl)(Cn1nc[nH]c1=S)C1(Cl)CC1 (centres unmarked) [Prothioconazole]	865 ppb
CC(C)(C)C(O)(CCc1ccc(Cl)cc1)Cn1cncn1 (centres unmarked) [Tebuconazole]	2445 ppb
CON=C(C(=O)OC)c1ccccc1CON=C(C)c1cccc(C(F)(F)F)c1 [Trifloxystrobin]	375 ppb

Reference: patent publication US20110105577A1 (priority 2007, published 2011)
